What was measured:
[1] = Solubility / dissolution in poloxamer-CPE formulations; assay type: physicochemical
[2] = test system: H. influenza; details: stated without test or source; cited from earlier work
[3] = test system: S. pneumoniae; details: stated without test or source; cited from earlier work
[4] = Systemic exposure: ciprofloxacin in plasma after gel application; assay type: in vivo, chinchilla; details: after hydrogel treatment
Experimental: The blood levels of Cip were investigated by collection of plasma samples at predetermined intervals from the transverse sinuses of chinchillas after hydrogel treatment.
NTHi OM chinchilla model and pharmacokinetics. All procedures and manipulations were performed using sedation analgesia under isoflurane chamber induction followed by mask inhalation of 1-3% isoflurane in accordance with approved IACUC protocols at Boston Children's Hospital. […] Isolates of NTHi grown to the mid-log phase were diluted in Hanks' balanced salt solution (HBSS), and about 25 to 75 CFU in […] were directly introduced into each middle ear through the dorsal aspect of the tympanic bullae under aseptic conditions. […] Serial plasma samples were also obtained through the […] during the experiment to determine systemic drug levels.

[5] = assay type: in vivo, chinchilla; details: healthy / OM infected chinchillas
Experimental: Histopathology. Hydrogel formulations were administered onto the tympanic membrane of live healthy/OM chinchillas. After 7 days later, they were euthanized as described elsewhere. The TMs were then excised and immediately fixed in 10% neutral buffered formalin overnight. The sectioned TMs (˜10 μm thick) were stained with hematoxylin and eosin, and evaluated by light microscopy in a blinded fashion.

highest amount of CTX that can be dissolved in the P188-CPEs formulation while maintaining the desired rheological properties [1] [%] | highest amount of CTX that can be dissolved in the P188-CPEs formulation as a powder form within a short time (<1 minute) ([1]; powder form, <1 minute) [%] | SMILES | minimum inhibitory concentration for middle ear infections [2] | minimum inhibitory concentration for middle ear infections [3] | ciprofloxacin in the bloodstream at any time point throughout the course of treatment [4] | ciprofloxacin in the bloodstream at any time point throughout the course of treatment ([4]; listed as Cip) | appearance of H&E-stained TM sections after 7 days [5]
42.6 | 28 | CO/N=C(\C(=O)N[C@@H]1C(=O)N2C(C(=O)O)=C(CSc3nc(=O)c(=O)[nH]n3C)CS[C@H]12)c1csc(N)n1 [CTX, ceftriaxone sodium] |  |  |  |  | 
 |  | O=C(O)c1cn(C2CC2)c2cc(N3CCNCC3)c(F)cc2c1=O [ciprofloxacin] | about 4 μg/mL | about 4 μg/mL | no Ciprofloxacin was detectable | no Cip was detectable | much thicker than healthy TM

From patent US20230270749A1, “THERMO-SENSITIVE PERMEATION ENHANCING FORMULATIONS FOR DRUG DELIVERY” (Children's Medical Center Corporation, priority 2020, published 2023)
